From ChEMBL document CHEMBL1147234, “Bioassay-guided isolation of epiquinamide, a novel quinolizidine alkaloid and nicotinic agonist from an Ecuadoran poison frog, Epipedobates tricolor” (J Nat Prod, 2003)

Assays:
Type in all cases: functional
[1] = molecular target: Acetylcholine receptor; alpha1/beta1/delta/gamma (Homo sapiens) (UniProt P02708+P07510+P11230+Q07001); experiment: Agonist activity at human nicotinic alpha-1-beta-1-gamma-delta receptor expressed in human TE-671 cells at 50 uM by cell based membrane potential assay relative to (+/-)-epibatidine
[2] = molecular target: Neuronal acetylcholine receptor; alpha3/beta2 (Homo sapiens) (UniProt P17787+P32297); experiment: Agonist activity at human nicotinic alpha3beta2 receptor expressed in human SH-SY5Y cells at 50 uM by cell based membrane potential assay relative to (+/-)-epibatidine
[3] = molecular target: Neuronal acetylcholine receptor; alpha3/beta4 (Homo sapiens) (UniProt P30926+P32297); experiment: Agonist activity at human nicotinic alpha3beta4 receptor expressed in human IMR32 cells at 50 uM by cell based membrane potential assay relative to (+/-)-epibatidine; conditions: IMR-32
[4] = molecular target: Neuronal acetylcholine receptor; alpha3/beta4 (Rattus norvegicus) (UniProt P04757+P12392); experiment: Agonist activity at rat nicotinic alpha3beta4 receptor expressed in human KXalpha-3-beta-4R2 cells at 50 uM by cell based membrane potential assay relative to (+/-)-epibatidine
[5] = molecular target: Neuronal acetylcholine receptor; alpha4/beta2 (Homo sapiens) (UniProt P17787+P43681); experiment: Agonist activity at human nicotinic alpha4beta2 receptor expressed in human K177 cells at 50 uM by cell based membrane potential assay relative to (+/-)-epibatidine

## CC(=O)N[C@@H]1CCCN2CCCC[C@H]12 (relative stereo)
[1]
  Activity: 8%
[2]
  Activity: 51%
[3]
  Activity: 15%
[4]
  Activity: 23%
[5]
  Activity: 58%
